{
  "source": "patent US20130210899A1",
  "about": "“Method and Therapeutic for the Treatment and Regulation of Memory Formation” (The Regents of the University of California, priority 2010, published 2013)",
  "key": {"in vivo": {"test": "in vivo", "settings": "mouse, brain, sc, 30 mg/kg"}, "HDAC2": {"molecular_target": "T1, HDAC2 (Mus musculus, UniProt P70288)", "T1 construct": "from tissue; host or cells: dorsal hippocampus of C57BL/6 mice", "test": "Immunohistochemistry of dorsal hippocampus 2 hours after intrahippocampal infusion", "format": "in vivo, C57BL/6 mice", "settings": "1.25 ng/side intrahippocampal infusion", "description": "(§1) Two weeks after mice were infused with AAV-Cre or two hours after hippocampal infusion of the inhibitor, mice were anesthetized deeply with sodium pentobarbital (100 mg/kg, i.p.) and perfused transcardially with ice-cold PBS, pH 7.4, followed by ice-cold 4% paraformaldehyde in PBS, pH 7.4, using a peristaltic perfusion pump (Fisher Scientific). The brains were removed, postfixed overnight at 4° C., and then transferred to 30% sucrose for 48 hr at 4° C. Brains were frozen and cryocut to 20 μm coronal slices, and sections were stored in 0.1M PBS. Floating sections were rinsed in 0.1% Triton X-100 (Fisher Scientific) in PBS, rinsed in PBS, and then blocked for 1 hr at room temperature in 8% normal goat serum (NGS, Jackson ImmunoResearch Laboratories) with 0.3% Triton X-100 in PBS. Sections were rinsed in PBS and for single labeling they were incubated overnight at 4° C. in 2% NGS, 0.3% Triton X-100 in PBS with primary antibody. The sections were then rinsed in PBS and incubated for 2 hr at room temperature with goat anti-rabbit IgG-FITC secondary antibody (1:1000, Millipore Bioscience International). […]\n(§2) Images were acquired and using an Olympus (BX51, Japan) microscope using a 4× or 20× objective, CCD camera (QImaging), and QCapture Pro 6.0 software (QImaging) and quantified with ImageJ software (NIH). […]"}, "HDAC4": {"system": "HDAC4", "test": "Immunohistochemistry of dorsal hippocampus 2 hours after intrahippocampal infusion", "format": "in vivo, C57BL/6 mice", "settings": "1.25 ng/side intrahippocampal infusion", "description": "as §1, §2"}, "C57BL/6J male mice [1]": {"system": "C57BL/6J male mice", "test": "Location-dependent object recognition memory (OLM) task after subthreshold training", "format": "in vivo", "settings": "for memory for object location vs vehicle, OLM: 1.25 ng/side intrahippocampal after 3 min training", "description": "Training and testing for location-dependent object recognition memory (OLM) and novel object recognition memory (ORM) was carried out as previously described. (See, e.g., Roozendaal et al., J Neurosci 30:5037-5046, 2010, the disclosure of which is incorporated herein by reference.) Prior to training, mice were handled 1-2 min for 5 days and were habituated to the experimental apparatus 3 min a day for 3 consecutive days in the absence of objects. The experimental apparatus was a white rectangular open field (30×23×21.5 cm).\n(See, Stefanko et al., Proc Natl Acad Sci USA 106:9447-9452, 2009, the disclosures of which are incorporated herein by reference.) During the 24-h or 7-day retention test, mice were placed in the experimental apparatus for 5 min. For object recognition memory (ORM), one copy of the familiar object (A3) and a new object (B1) were placed in the same location as during the training trial. For location-dependent object recognition memory (OLM), one copy of the familiar object (A3) was placed in the same location as during the training trial and one copy of the familiar object (A4) was placed in the middle of the box.\n(§3) All combinations and locations of objects were used in a balanced manner to reduce potential biases due to preference for particular locations or objects. All training and testing trials were videotaped and analyzed by individuals blind to the treatment condition and the genotype of subjects. A mouse was scored as exploring an object when its head was oriented toward the object within a distance of 1 cm or when the nose was touching the object. The relative exploration time was recorded and expressed by a discrimination index [DI=(tnovel−tfamiliar)/(tnovel+tfamiliar)×100].\nAnimals were tested for short-term memory 90 min after training.\nIn addition, a separate group of mice were given a 3 min training period and then a 7 day retention test."}, "C57BL/6J male mice [2]": {"system": "C57BL/6J male mice", "test": "Novel object recognition memory (ORM) task after subthreshold training", "format": "in vivo", "settings": "24 h test; for long-term memory formation vs vehicle-treated mice, ORM: 3, 10, 30 mg/kg s.c. after 3 min training; for dose-dependent effect on ORM: 3, 10, 30 mg/kg s.c.", "experimental": "Training and testing for location-dependent object recognition memory (OLM) and novel object recognition memory (ORM) was carried out as previously described. […] The experimental apparatus was a white rectangular open field (30×23×21.5 cm).\n24-h later mice were tested for memory retention (5 min) using the object recognition memory task, in which a familiar object was replaced with a novel one. A discrimination index (DI) above zero indicates a preference for the novel object."}, "CBP^+/+ mice": {"system": "CBP^+/+ mice", "test": "OLM task in CBP+/+ mice after intrahippocampal infusion", "format": "in vivo", "settings": "intrahippocampal 1.25 ng/side after 3 min training, 24 h", "description": "(§4) To generate a focal deletion, mice were infused with adeno associated virus expressing Cre-recombinase (AAV2/1-Cre; Penn Vector Core, University of Pennsylvania, Philadelphia, Pa.) 2 weeks prior to behavioral procedures. Mice were anesthetized with isoflurane and placed in a digital Just For Mice stereotax (Stoelting, Wood Dale, Ill.). 1.0 μl of virus was injected at a rate of 6 μl/hr via an infusion needle positioned in the dorsal CA1 area of the hippocampus (antereoposterior (AP) −2.0; mediolateral (ML) ±1.5; dorsoventral (DV) −1.5). NCoR homozygous knock-in mice (referred to as DADm mice) were generated on C57BL/6 background using homologous recombination to incorporate a single amino acid substitution (Y478A) in the NCoR deacetylase activation domain (DAD). […]\nas §3, with “[DI=(tnovel−tfamiliar)/(tnovel+tfamiliar)×100]. […]” for “[DI=(tnovel−tfamiliar)/(tnovel+tfamiliar)×100].”"}, "H4K8Ac": {"system": "H4K8Ac", "test": "Immunohistochemistry of dorsal hippocampus 2 hours after intrahippocampal infusion", "format": "in vivo, C57BL/6 mice", "settings": "1.25 ng/side intrahippocampal infusion", "description": "as §1, §2"}, "CBP^KIX/KIX mice": {"system": "CBP^KIX/KIX mice", "test": "OLM task in CBP KIX/KIX mutant mice after intrahippocampal infusion", "format": "in vivo", "settings": "intrahippocampal 1.25 ng/side after 3 min training, 24 h", "description": "as §4\nas §3, with “[DI=(tnovel−tfamiliar)/(tnovel+tfamiliar)×100]. […]” for “[DI=(tnovel−tfamiliar)/(tnovel+tfamiliar)×100].”"}, "neuronal morphology": {"system": "neuronal morphology", "test": "DAPI staining of neuronal morphology after intrahippocampal infusion", "format": "in vivo, C57BL/6 mice", "settings": "1.25 ng/side intrahippocampal infusion, 2 hours", "description": "as §1, with “International). Sections were rinsed again in PBS and mounted on slides using ProLong Gold antifade reagent with DAPI (Invitrogen).” for “International).”"}, "mice [3]": {"system": "mice", "test": "Acquisition of cocaine conditioned place preference, treatment after conditioning sessions", "format": "in vivo", "settings": "10 mg/kg s.c. following each conditioning session; cocaine 5 mg/kg i.p.", "description": "In an experiment with a similar design as described above, animals were confined to a specific compartment and given cocaine (5 mg/kg, i.p.) or saline on alternating days. Immediately following the conditioning session (30 min), mice received an injection of RGFP966 (10 mg/kg, s.c.) or vehicle and then returned to the home cage. Forty-eight hours after the last conditioning session, animals had free access to all 3 compartments and preference was assessed in a drug-free state (15 min, Posttest; day 10). CPP score indicates preference by mean±S.E.M. of time in CS+ minus CS− compartment. All groups extinguished the preference for the CS+ compartment by extinction day 6. The following day, animals received a cocaine prime (10 mg/kg, i.p.) and were placed in the test chamber (Reinstatement).\nIn this test, mice were conditioned with two pairings of a low dose of cocaine (5 mg/kg, i.p.) and saline. Following each conditioning session, mice received RGFP966 (10 mg/kg, s.c.) or vehicle."}, "mice [4]": {"system": "mice", "test": "Cocaine-primed reinstatement of conditioned place preference", "format": "in vivo", "settings": "cocaine prime 10 mg/kg i.p.", "description": "Conditioned place preference experiments were similar to those described in Malvaez et al. (Malvaez, M., et al., Biological Psychiatry, 67, 36-43, 2010, the disclosure of which is incorporated herein by reference). Mice were briefly handled for 3 consecutive days (days 1-3). Baseline preferences were assessed by placing the animals in the three-chambered apparatus for 15 min (Pretest, day 4). Time spent in each compartment was recorded. Conditioning took place over the next 4 days with the guillotine doors closed, confining animals to a specific compartment for 30 min (days 5-8). An unbiased paradigm was used such that half of the animals were injected with cocaine (20 mg/kg, i.p.) before placement in the checkered compartment and half were injected with cocaine before placement in the white compartment (CS+). […] Forty-eight hours after the last conditioning session, animals had access to all 3 compartments and preference was assessed in a drug-free state (15 min, Posttest; day 10). […]\nIn an experiment with a similar design as described above, animals were confined to a specific compartment and given cocaine (5 mg/kg, i.p.) or saline on alternating days. […] Forty-eight hours after the last conditioning session, animals had free access to all 3 compartments and preference was assessed in a drug-free state (15 min, Posttest; day 10). […]"}, "mice [5]": {"system": "mice", "test": "Extinction of cocaine conditioned place preference (CPP)", "format": "in vivo", "settings": "10 mg/kg s.c. immediately following Posttest; Ext2 and Ext3", "description": "Conditioned place preference experiments were similar to those described in Malvaez et al. (Malvaez, M., et al., Biological Psychiatry, 67, 36-43, 2010, the disclosure of which is incorporated herein by reference). Mice were briefly handled for 3 consecutive days (days 1-3). Baseline preferences were assessed by placing the animals in the three-chambered apparatus for 15 min (Pretest, day 4). Time spent in each compartment was recorded. Conditioning took place over the next 4 days with the guillotine doors closed, confining animals to a specific compartment for 30 min (days 5-8). An unbiased paradigm was used such that half of the animals were injected with cocaine (20 mg/kg, i.p.) before placement in the checkered compartment and half were injected with cocaine before placement in the white compartment (CS+). The next day, mice received 0.9% saline injection (1.0 ml/kg, i.p.) before placement in the alternate compartment (CS−). Injections were alternated for subsequent conditioning sessions. Forty-eight hours after the last conditioning session, animals had access to all 3 compartments and preference was assessed in a drug-free state (15 min, Posttest; day 10). This is also the first of the extinction sessions which occurred daily until extinction criteria were met. […]"}},
  "data": [
    {"compound": "Cc1ccc(C(=O)NCCCCCC(=O)Nc2ccc(F)cc2N)cc1", "note": "[RGFP136, N-(6-(2-amino-4-fluorophenylamino)-6-oxohexyl)-4-methylbenzamide]", "values": [
      {"measurement": "Cmax", "setting": "in vivo", "value": "~1700", "unit": "nM"},
      {"measurement": "HDAC2 expression vs vehicle", "setting": "HDAC2", "value": "unchanged"},
      {"measurement": "HDAC4 nuclear expression vs vehicle", "setting": "HDAC4", "value": "loss of HDAC4 nuclear expression"},
      {"measurement": "memory for object location vs vehicle, OLM", "setting": "C57BL/6J male mice [1]; 24 hours", "value": "greater memory"},
      {"measurement": "memory for object location vs vehicle, OLM", "setting": "C57BL/6J male mice [1]; 7 day retention test", "value": "significantly greater memory"},
      {"measurement": "preference for the object in the novel location vs vehicle, OLM", "setting": "C57BL/6J male mice [1]; 30 mg/kg s.c. post-training, 24 h retention test", "value": "significant preference"},
      {"measurement": "long-term memory formation vs vehicle-treated mice, ORM", "setting": "C57BL/6J male mice [2]", "value": "significantly enhanced"},
      {"measurement": "dose-dependent effect on ORM", "setting": "C57BL/6J male mice [2]", "value": "Significant dose-dependent effects"},
      {"measurement": "memory for novel object location vs vehicle, OLM", "setting": "CBP^+/+ mice", "value": "significantly greater memory"},
      {"measurement": "immunoreactivity for H4K8Ac vs vehicle", "setting": "H4K8Ac", "value": "increase"},
      {"measurement": "effect on long-term memory, OLM", "setting": "CBP^KIX/KIX mice", "value": "no effect"},
      {"measurement": "neuronal morphology (DAPI staining) vs vehicle", "setting": "neuronal morphology", "value": "does not alter neuronal morphology"}
    ]},
    {"compound": "Nc1cc(F)ccc1NC(=O)/C=C/c1cnn(CC=Cc2ccccc2)c1", "note": "[RGFP966, (E)-N-(2-amino-4-fluorophenyl)-3-(1-cinnamyl-1H-pyrazol-4-yl)acrylamide]", "values": [
      {"measurement": "long-term memory formation vs vehicle-treated mice, ORM", "setting": "C57BL/6J male mice [2]", "value": "significantly enhanced"},
      {"measurement": "dose-dependent effect on ORM", "setting": "C57BL/6J male mice [2]", "value": "lack of an observed dose effect"},
      {"measurement": "effect on cocaine conditioned place preference (Posttest)", "setting": "mice [3]", "value": "does not alter"},
      {"measurement": "reinstatement of preference after cocaine prime", "setting": "mice [4]; 3 mg/kg received during extinction", "value": "significant preference"},
      {"measurement": "reinstatement of preference after cocaine prime", "setting": "mice [4]; 10 mg/kg received during extinction", "value": "did not reinstate a preference"},
      {"measurement": "extinction of preference for the cocaine-paired compartment (CPP score)", "setting": "mice [5]", "value": "rapid extinction"}
    ]}
  ]
}
